The values below come from paper PMC7677311, “Disrupting Plasmodium UIS3–host LC3 interaction with a small molecule causes parasite elimination from host cells” (Communications Biology, 2020).

This assay has as its target T1, UIS3 (PfUIS3) (Plasmodium falciparum, UniProt Q8IEU1).
T1 construct: gene PF3D7_1302200; recombinant His-mycUIS3, His tag cleaved; with LC3
As to the kind of experiment: ITC, C4 ([…]) titrated into a saturated solution of UIS3 with LC3, one-site model. Format: binding. (ITC needs no label: the signal is the heat of the interaction.)

pKd: −log10 of the molar value.

In general, pKd refers to the Kd on a negative log10 scale, so that one unit is a factor of ten. A higher pKd goes with a low Kd.

T1 sequence (Q8IEU1 entry or part of it): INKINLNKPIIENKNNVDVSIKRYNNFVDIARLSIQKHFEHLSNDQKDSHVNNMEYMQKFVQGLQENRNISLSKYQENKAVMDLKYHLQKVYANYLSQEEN

`N#Cc1ccc(C(=O)N2CCN(Cc3ccc(-c4noc(-c5cccc(C(F)(F)F)c5)n4)cc3)CC2)cc1` [C4, 4-{[4-(4-{5-[3-(trifluoromethyl)phenyl]-1,2,4-oxadiazol-3-yl}benzyl)piperazino]carbonyl}benzonitrile] gave a pKd of 6.62.
